# Laboratory results reported in paper PMC10480232 (Scientific Reports, 2023).
# Residues, ends and D or L forms follow the SMILES beside them. No end group written: not given here.
# Key:
# SARS-CoV-2 = settings: 1 h
# [1] = system: SARS-CoV-2 (nCoV/USA_WA1/2020)
Molecule,SARS-CoV-2 inhibition at 50 µM (SARS-CoV-2) [%],also measured
IKNVELNIENLGERIKNAKKKVWEKIKSFGRRIKDFFRKPSPEVEP [Bat Cathelicidin 4],> 50,–
CC[C@H](C)[C@H](NC(=O)[C@H](CCCCN)NC(=O)[C@H](CCCCN)NC(=O)[C@@H](N)CC(C)C)C(=O)NCC(=O)N[C@@H](CCCCN)C(=O)N[C@H](C(=O)N[C@@H](CC(C)C)C(=O)N[C@@H](CCCCN)C(=O)N[C@@H](Cc1c[nH]c2ccccc12)C(=O)N[C@H](C(=O)N1CCC[C@H]1C(=O)N1CCC[C@H]1C(=O)N[C@H](C(=O)N[C@H](C(=O)NCC(=O)N[C@@H](CO)C(=O)N[C@H](C(=O)N1CCC[C@H]1C(=O)N[C@@H](CC(C)C)C(=O)NCC(=O)N[C@@H](CS)C(=O)NCC(=O)O)[C@@H](C)CC)C(C)C)[C@@H](C)CC)[C@@H](C)CC)C(C)C [p14N] (H-LKKIGKVLKWIPPIVGSIPLGCG-OH),–,anti-SARS-CoV-2 activity relative to PMAP-36R (in words) [1]: no inhibition
CC[C@H](C)[C@H](NC(=O)CNC(=O)[C@@H](NC(=O)[C@H](CCCCN)NC(=O)[C@@H](NC(=O)[C@H](CCCCN)NC(=O)[C@H](CCCCN)NC(=O)[C@H](Cc1ccccc1)NC(=O)[C@H](Cc1ccccc1)NC(=O)[C@H](CC(N)=O)NC(=O)[C@H](CCCCN)NC(=O)[C@H](Cc1ccccc1)NC(=O)[C@H](CCCNC(=N)N)NC(=O)[C@@H](N)CCCCN)[C@@H](C)CC)[C@@H](C)O)C(=O)N[C@@H](CCCCN)C(=O)N[C@@H](CCCCN)C(=O)N[C@H](C(=O)N[C@H](C(=O)N[C@@H](CCCCN)C(=O)N[C@@H](CCCCN)C(=O)N[C@H](C(=O)N[C@@H](CCCCN)C(=O)N[C@@H](CCC(=O)O)C(=O)O)[C@@H](C)O)[C@@H](C)CC)C(C)C [NS] (H-KRFKNFFKKIKTGIKKVIKKTKE-OH; N-terminus and C-terminus assumed),> 50,–
CC[C@H](C)[C@H](NC(=O)[C@H](CCCCN)NC(=O)[C@H](CCCCN)NC(=O)[C@H](CC(C)C)NC(=O)[C@H](CCCNC(=N)N)NC(=O)[C@H](CCCCN)NC(=O)[C@H](CCCNC(=N)N)NC(=O)[C@@H](NC(=O)[C@H](CCCCN)NC(=O)[C@H](CCCCN)NC(=O)[C@H](CCCNC(=N)N)NC(=O)[C@H](CC(C)C)NC(=O)[C@H](CCCNC(=N)N)NC(=O)[C@H](CCCNC(=N)N)NC(=O)[C@H](Cc1ccccc1)NC(=O)[C@H](CCCNC(=N)N)NC(=O)CNC(=O)[C@@H](N)C(C)C)[C@@H](C)O)C(=O)NCC(=O)N[C@@H](CCCCN)C(=O)N[C@H](C(=O)N[C@@H](CC(C)C)C(=O)N[C@@H](CCCCN)C(=O)N[C@@H](Cc1c[nH]c2ccccc12)C(=O)N[C@H](C(=O)N1CCC[C@H]1C(=O)N1CCC[C@H]1C(=O)N[C@H](C(=O)N[C@H](C(=O)NCC(=O)N[C@@H](CO)C(=O)N[C@H](C(=O)N1CCC[C@H]1C(=O)N[C@@H](CC(C)C)C(=O)NCC(=O)N[C@@H](CS)C(=O)NCC(=O)O)[C@@H](C)CC)C(C)C)[C@@H](C)CC)[C@@H](C)CC)C(C)C [PMAP-36R] (H-VGRFRRLRKKTRKRLKKIGKVLKWIPPIVGSIPLGCG-OH),> 50,hemolytic activity (in words) (human red blood cells): considerable hemolytic activity; Vero TD50 48 h (Vero hACE2 cells): 23.47 µM; HEK293T TD50 (HEK293T cells): 24.61 µM
CC[C@H](C)[C@H](NC(=O)[C@@H]1CCCN1C(=O)[C@@H]1CCCN1C(=O)[C@@H](NC(=O)[C@H](Cc1c[nH]c2ccccc12)NC(=O)[C@H](CCCCN)NC(=O)[C@H](CC(C)C)NC(=O)[C@@H](NC(=O)[C@H](CCCCN)NC(=O)CNC(=O)[C@@H](NC(=O)[C@H](CCCCN)NC(=O)[C@H](CCCCN)NC(=O)[C@H](CC(C)C)NC(=O)[C@H](CCCNC(=N)N)NC(=O)[C@H](CCCCN)NC(=O)[C@H](CCCNC(=N)N)NC(=O)[C@@H](NC(=O)[C@H](CCCCN)NC(=O)[C@H](CCCCN)NC(=O)[C@H](CCCNC(=N)N)NC(=O)[C@H](CC(C)C)NC(=O)[C@H](CCCNC(=N)N)NC(=O)[C@H](CCCNC(=N)N)NC(=O)[C@H](Cc1ccccc1)NC(=O)[C@H](CCCNC(=N)N)NC(=O)CNC(=O)[C@@H](N)C(C)C)[C@@H](C)O)[C@@H](C)CC)C(C)C)[C@@H](C)CC)C(=O)O [p9C] (H-VGRFRRLRKKTRKRLKKIGKVLKWIPPI-OH),–,anti-SARS-CoV-2 activity relative to PMAP-36R (in words) [1]: none
CC[C@H](C)[C@H](NC(=O)[C@H](CO)NC(=O)CNC(=O)[C@@H](NC(=O)[C@@H](NC(=O)[C@@H]1CCCN1C(=O)[C@@H]1CCCN1C(=O)[C@@H](NC(=O)[C@H](Cc1c[nH]c2ccccc12)NC(=O)[C@H](CCCCN)NC(=O)[C@H](CC(C)C)NC(=O)[C@@H](NC(=O)[C@H](CCCCN)NC(=O)CNC(=O)[C@@H](NC(=O)[C@H](CCCCN)NC(=O)[C@H](CCCCN)NC(=O)[C@H](CC(C)C)NC(=O)[C@H](CCCNC(=N)N)NC(=O)[C@H](CCCCN)NC(=O)[C@H](CCCNC(=N)N)NC(=O)[C@@H](NC(=O)[C@H](CCCCN)NC(=O)[C@H](CCCCN)NC(=O)[C@H](CCCNC(=N)N)NC(=O)[C@H](CC(C)C)NC(=O)[C@H](CCCNC(=N)N)NC(=O)[C@H](CCCNC(=N)N)NC(=O)[C@H](Cc1ccccc1)NC(=O)[C@H](CCCNC(=N)N)NC(=O)CNC(=O)[C@@H](N)C(C)C)[C@@H](C)O)[C@@H](C)CC)C(C)C)[C@@H](C)CC)[C@@H](C)CC)C(C)C)C(=O)O [p5C] (H-VGRFRRLRKKTRKRLKKIGKVLKWIPPIVGSI-OH),–,anti-SARS-CoV-2 activity relative to PMAP-36R (in words) [1]: little inhibitory activity
CC[C@H](C)[C@H](NC(=O)[C@H](CCCNC(=N)N)NC(=O)[C@@H]1CCCN1C(=O)[C@@H](NC(=O)[C@@H]1CCCN1C(=O)[C@H](Cc1ccccc1)NC(=O)[C@H](CO)NC(=O)[C@@H]1CCCN1C(=O)[C@@H]1CCCN1C(=O)[C@H](Cc1ccccc1)NC(=O)[C@H](Cc1c[nH]c2ccccc12)NC(=O)[C@@H]1CCCN1C(=O)[C@@H]1CCCN1C(=O)[C@@H]1CCCN1C(=O)[C@H](Cc1c[nH]c2ccccc12)NC(=O)[C@H](CCC(N)=O)NC(=O)[C@H](Cc1c[nH]c2ccccc12)NC(=O)[C@H](CCCNC(=N)N)NC(=O)[C@H](CC(C)C)NC(=O)[C@@H]1CCCN1C(=O)[C@@H](NC(=O)[C@@H]1CCCN1C(=O)[C@H](Cc1c[nH]c2ccccc12)NC(=O)[C@H](Cc1ccccc1)NC(=O)[C@@H]1CCCN1C(=O)[C@@H](NC(=O)[C@H](CCCNC(=N)N)NC(=O)[C@@H](N)CCCNC(=N)N)[C@@H](C)CC)[C@@H](C)CC)[C@@H](C)CC)C(=O)N[C@@H](CO)C(=O)N[C@@H](CCCNC(=N)N)C(=O)N[C@@H](CCCCN)C(=O)N[C@@H](CCCNC(=N)N)C(=O)O [Beluga 1] (H-RRIPFWPIPLRWQWPPPWFPPSFPIPRISRKR-OH; N-terminus and C-terminus assumed),> 50,–
CC[C@H](C)[C@H](NC(=O)[C@H](CCCCN)NC(=O)[C@H](CCCCN)NC(=O)[C@H](Cc1ccccc1)NC(=O)[C@H](Cc1ccccc1)NC(=O)[C@H](CCCCN)NC(=O)[C@H](CCCCN)NC(=O)[C@H](Cc1ccccc1)NC(=O)[C@H](CCCNC(=N)N)NC(=O)[C@@H](N)CCCCN)C(=O)N[C@@H](CCCCN)C(=O)N[C@@H](CCCCN)C(=O)N[C@@H](CO)C(=O)N[C@H](C(=O)N[C@@H](CCCCN)C(=O)N[C@@H](CCCCN)C(=O)N[C@@H](CCCNC(=N)N)C(=O)N[C@H](C(=O)N[C@@H](CCCCN)C(=O)N[C@@H](CCCCN)C(=O)N[C@@H](CC(C)C)C(=O)N[C@@H](Cc1ccccc1)C(=O)N[C@@H](CCCCN)C(=O)N[C@@H](CCCCN)C(=O)N1CCC[C@H]1C(=O)N[C@@H](CCCNC(=N)N)C(=O)N[C@H](C(=O)N[C@H](C(=O)N1CCC[C@H]1C(=O)N[C@H](C(=O)N[C@@H](CO)C(=O)N[C@H](C(=O)N1CCC[C@H]1C(=O)N[C@@H](Cc1ccccc1)C(=O)O)[C@@H](C)CC)[C@@H](C)CC)[C@@H](C)CC)C(C)C)C(C)C)C(C)C [TS] (H-KRFKKFFKKIKKSVKKRVKKLFKKPRVIPISIPF-OH; N-terminus and C-terminus assumed),> 50,–
CC[C@H](C)[C@H](NC(=O)[C@H](CCCNC(=N)N)NC(=O)[C@H](CCC(=O)O)NC(=O)CN)C(=O)N[C@@H](CCCCN)C(=O)N[C@@H](CC(N)=O)C(=O)N[C@@H](C)C(=O)N[C@@H](CCCCN)C(=O)N[C@@H](CCCCN)C(=O)N[C@@H](CCCCN)C(=O)N[C@H](C(=O)N[C@@H](Cc1c[nH]c2ccccc12)C(=O)N[C@@H](CCC(=O)O)C(=O)N[C@@H](CCCCN)C(=O)N[C@H](C(=O)N[C@@H](CCCCN)C(=O)N[C@@H](CO)C(=O)N[C@@H](Cc1ccccc1)C(=O)NCC(=O)N[C@@H](CCCNC(=N)N)C(=O)N[C@@H](CCCNC(=N)N)C(=O)N[C@H](C(=O)N[C@@H](CCCCN)C(=O)N[C@@H](CC(=O)O)C(=O)N[C@@H](Cc1ccccc1)C(=O)N[C@@H](Cc1ccccc1)C(=O)N[C@@H](CCCNC(=N)N)C(=O)N[C@@H](CCCCN)C(=O)N1CCC[C@H]1C(=O)N[C@@H](CO)C(=O)N1CCC[C@H]1C(=O)N[C@@H](CCC(=O)O)C(=O)N[C@H](C(=O)N[C@@H](CCC(=O)O)C(=O)N1CCC[C@H]1C(=O)O)C(C)C)[C@@H](C)CC)[C@@H](C)CC)C(C)C [Bat Cathelicidin 4c] (H-GERIKNAKKKVWEKIKSFGRRIKDFFRKPSPEVEP-OH; N-terminus and C-terminus assumed),> 50,–
CC[C@H](C)[C@H](NC(=O)[C@H](CO)NC(=O)[C@H](CCCCN)NC(=O)[C@H](CCCNC(=N)N)NC(=O)[C@H](CC(C)C)NC(=O)[C@H](CCCCN)NC(=O)[C@H](CCCCN)NC(=O)[C@@H](NC(=O)[C@H](CCCNC(=N)N)NC(=O)[C@H](CCCCN)NC(=O)[C@@H](N)CCCNC(=N)N)[C@@H](C)CC)C(=O)N[C@@H](CCCCN)C(=O)N[C@@H](CCCCN)C(=O)N[C@@H](CCCNC(=N)N)C(=O)N[C@@H](CC(C)C)C(=O)N[C@@H](CCCCN)C(=O)N[C@@H](CCCCN)C(=O)N[C@@H](CC(C)C)C(=O)N1CCC[C@H]1C(=O)N[C@@H](Cc1ccccc1)C(=O)N[C@@H](CCC(=O)O)C(=O)N[C@H](C(=O)N1CCC[C@H]1C(=O)N[C@@H](CC(C)C)C(=O)N[C@H](C(=O)N[C@@H](Cc1ccccc1)C(=O)N[C@@H](CO)C(=O)N[C@H](C(=O)N1CCC[C@H]1C(=O)N[C@@H](Cc1ccccc1)C(=O)O)[C@@H](C)CC)C(C)C)C(C)C [PC1a] (H-RKRIKKLRKSIKKRLKKLPFEVPLVFSIPF-OH; N-terminus and C-terminus assumed),> 50,–
RTKRFRKLGNLLQKGGQKIGQKIERIGQKIKDFFSNLVPRQEGA [Pangolin 1],> 50,–
